Reference: US10501479B2, “Benzenesulfonyl-asymmetric ureas and medical uses thereof” (HELSINN HEALTHCARE SA, priority 2016, dated 2019)
Counter-ions that a name gives are not always drawn. Like-named read-outs stand apart in the source and are kept apart here.

Tests used:
[1] = biological target: T1, recombinant human ghrelin receptor (HEK293/GRLN) (Homo sapiens, UniProt Q92847); assay: Ghrelin inverse agonist potency (EC50) with IP-1 (IP-One HTRF) assay; format: cell-based; details: IP-1 assay
T1 construct: expressed in transfected cells
T1 sequence (Q92847 whole entry): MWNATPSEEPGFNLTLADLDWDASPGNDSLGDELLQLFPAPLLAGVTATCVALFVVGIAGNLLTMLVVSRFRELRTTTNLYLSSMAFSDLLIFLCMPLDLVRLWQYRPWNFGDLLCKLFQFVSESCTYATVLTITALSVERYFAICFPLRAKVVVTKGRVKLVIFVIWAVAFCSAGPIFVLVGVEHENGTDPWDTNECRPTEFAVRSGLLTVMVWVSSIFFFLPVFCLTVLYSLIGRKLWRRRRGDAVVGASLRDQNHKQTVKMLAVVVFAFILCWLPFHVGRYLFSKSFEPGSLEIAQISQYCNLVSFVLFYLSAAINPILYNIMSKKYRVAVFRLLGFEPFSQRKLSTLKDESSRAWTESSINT
Description: Evaluation of Ghrelin Inverse Agonist Potency (EC50) with IP-1 Assay:
HEK293 cells stably expressing recombinant human ghrelin receptor (HEK293/GRLN) were used in the IP-One HTRF assay. One day before the test, cells were seeded at a density of 1.5×10^4/well in a Matrigel® coated 384-well plate with 30 μL of complete Dulbecco's Modified Eagle's Medium and incubated at 37° C. in 5% CO2 for 18-22 hours. On the test day, the medium was removed by centrifugation at 600 rpm for 30 seconds, and 20 μL of stimulation buffer containing 1x tested compound was added with Bravo (Agilent technologies). The plate was then incubated at 37° C. 5% CO2 for 1 hour. After the incubation, 5 μL of IP1-d2 and 5 μL of Tb-Cryp were added to all wells using multidrop Combi(Thermo). After additional incubation at room temperature for 1 hour, the plates were read on Envision with 620 and 665 (Perkin Elmer).

[2] = biological target: T2, GHSR-1a (HEK293/GHSR1a cell line) (Homo sapiens, UniProt Q92847); assay: Ghrelin antagonist potency (IC50) with calcium FLIPR assay, ghrelin 10 nM; format: cell-based; details: ghrelin antagonist potency
T2 construct: expressed in transfected cells; host or cells: HEK293/GHSR1a cell line
T2 sequence (Q92847 whole entry): as above
Description: Evaluation of Ghrelin Agonist (EC50) and Antagonist Potency (IC50) with Calcium FLIPR Assay:
The intracellular calcium assay was carried out in a 384-well format FLIPR™ (Molecular Device) HEK293/GHSR1a cell line. Cells were seeded 24 hr prior to the experiments at an optimal density per well. Preincubation with selected calcium dye lasted for 30-60 min at room temperature or 37° C. Test compounds, dissolved in DMSO, were added at the appropriate time and incubated for 15 min followed by the addition of ghrelin with FlexStation or FLIPR. Relative fluorescence was monitored by the FLIPR™ Molecular Device. EC50 and IC50 values were estimated from dose-response data using GraphPad Prism software. To check for GHSR-1a agonism, the compound was added at t=20 sec. and the calcium response was followed for 2 minutes. To check for GHSR-1a antagonism, the compound and Ghrelin (10 nM) were added to the cells at t=20 sec. and the calcium response was measured for 2 minutes. The potency of the antagonist was calculated by its ability to reduce the ghrelin response. Dose-response curves were made for relevant antagonists.

[3] = inverse agonist potency, read-out: EC50 (Activity)

| Structure (SMILES) | EC50 [1, 3] [nM] | IC50 ([2]; read-out: IC50 (Activity)) [nM] | EC50 ([1]; ghrelin inverse agonist potency, read-out: Activity EC50) [nM] | IC50 ([2]; read-out: Activity IC50) [nM] |
| --- | --- | --- | --- | --- |
| O=C(NCc1ccsc1)Nc1ccc(S(=O)(=O)Cc2ccc3c(c2)CNC3)cc1 [H1217, 1-(4-((isoindolin-5-ylmethyl)sulfonyl)phenyl)-3-(thiophen-3-ylmethyl)urea] | 1150 | 1450 | – | – |
| CC(NC(=O)Nc1ccc(S(=O)(=O)Nc2ccc(CO)cc2)cc1)c1ccccc1 (stereo not drawn) [H1141, N-(4-(hydroxymethyl)phenyl)-4-(3-(1-phenylethyl)ureido) benzenesulfonamide] | 562 | 2610 | – | – |
| CC(NC(=O)Nc1ccc(S(=O)(=O)Nc2ccc3c(c2)CNC3)cc1)c1cccc2ccccc12 (stereo not drawn) [H1155, N-(isoindolin-5-yl)-4-(3-(1-(naphthalen-1-yl)ethyl)ureido) benzenesulfonamide] | 5.03 | 4.3 | – | – |
| C[C@H](NC(=O)Nc1ccc(S(=O)(=O)Nc2ccc(N)nn2)cc1)c1cccc(Cl)c1Cl [H1129, (S)-N-(6-aminopyridazin-3-yl)-4-(3-(1-(2,3-dichlorophenyl)ethyl)ureido) benzenesulfonamide] | 2460 | 3330 | – | – |
| C[C@H](NC(=O)Nc1ccc(S(=O)(=O)Nc2ccc(C(C)(C)N)cc2)cc1)c1cccc(Cl)c1Cl [H1074, (S)-N-(4-(2-aminopropan-2-yl)phenyl)-4-(3-(1-(2,3-dichlorophenyl)ethyl)ureido) benzenesulfonamide] | 657 | 3250 | – | – |
| C[C@H](NC(=O)Nc1ccc(S(=O)(=O)Cc2ccc(O)cc2)cc1)c1cccc(Cl)c1Cl [H1099, (S)-1-(1-(2,3-dichlorophenyl)ethyl)-3-(4-((4-hydroxybenzyl)sulfonyl)phenyl)urea] | 1140 | 8670 | – | – |
| CC(c1ccc2c(c1)CCNC2)S(=O)(=O)c1ccc(NC(=O)N[C@@H](C)c2cccc(Cl)c2Cl)cc1 (stereo partly drawn) [H1103, 1-((S)-1-(2,3-dichlorophenyl)ethyl)-3-(4-((1-(1,2,3,4-tetrahydroisoquinolin-6-yl)ethyl)sulfonyl)phenyl)urea hydrochloride] | 66 | 487 | – | – |
| Cc1ccc(CS(=O)(=O)c2ccc(NC(=O)N[C@@H](C)c3cccc(Cl)c3Cl)cc2)cc1 [H0964, (S)-1-(1-(2,3-dichlorophenyl)ethyl)-3-(4-((4-methylbenzyl)sulfonyl)phenyl)urea] | 2480 | 4170 | – | – |
| O=C(NCc1cccc(Cl)c1)Nc1ccc(S(=O)(=O)Cc2ccc3c(c2)CCNC3)cc1 [H1038, 1-(3-chlorobenzyl)-3-(4-(((1,2,3,4-tetrahydroisoquinolin-6-yl)methyl)sulfonyl)phenyl)urea] | 123 | 376 | – | – |
| COc1ccc([C@H](C)NC(=O)Nc2ccc(S(=O)(=O)Nc3ccc(CCN)cc3)cc2)c(Cl)c1Cl [H0951, (S)-N-(4-(2-aminoethyl)phenyl)-4-(3-(1-(2,3-dichloro-4-methoxyphenyl)ethyl)ureido) benzenesulfonamide] | 32.7 | 83.8 | – | – |
| CC(NC(=O)Nc1ccc(S(=O)(=O)Cc2ccc3c(c2)CCNC3)cc1)c1cccc(Cl)c1 (stereo not drawn) [H1042, 1-(1-(3-chlorophenyl)ethyl)-3-(4-(((1,2,3,4-tetrahydroisoquinolin-6-yl)methyl)sulfonyl)phenyl)urea] | 122 | 36.6 | – | – |
| C[C@H](NC(=O)Nc1ccc(S(=O)(=O)Cc2ccc3c(c2)CCN3)cc1)c1cccc(Cl)c1Cl [H1047, (S)-1-(1-(2,3-dichlorophenyl)ethyl)-3-(4-((indolin-5-ylmethyl)sulfonyl)phenyl)urea] | 1160 | 865 | – | – |
| C[C@H](NC(=O)Nc1ccc(S(=O)(=O)Nc2ccc(-c3cnc[nH]3)cc2)cc1)c1cccc(Cl)c1Cl [H1109, (S)-N-(4-(1H-imidazol-5-yl)phenyl)-4-(3-(1-(2,3-dichlorophenyl)ethyl)ureido) benzenesulfonamide] | 136 | 427 | – | – |
| CN(Cc1ccccc1)C(=O)Nc1ccc(S(=O)(=O)Cc2ccc3c(c2)CNC3)cc1 [H1204, 1-benzyl-3-(4-((isoindolin-5-ylmethyl)sulfonyl)phenyl)-1-methylurea] | 624 | 692 | – | – |
| COc1ccc(CNC(=O)Nc2ccc(S(=O)(=O)Cc3ccc4c(c3)CNC4)cc2)nc1 [H1212, 1-(4-((isoindolin-5-ylmethyl)sulfonyl)phenyl)-3-((5-methoxypyridin-2-yl)methyl)urea] | 1780 | 3100 | – | – |
| CC(C)C(C)NC(=O)Nc1ccc(S(=O)(=O)Cc2ccc3c(c2)CN(C)C3)cc1 (stereo not drawn) [H1229, 1-(3-methylbutan-2-yl)-3-(4-(((2-methylisoindolin-5-yl)methyl)sulfonyl)phenyl)urea] | 369 | 291 | – | – |

| Structure (SMILES) | EC50 [1, 3] [nM] | IC50 ([2]; read-out: IC50 (Activity)) [nM] | EC50 ([1]; ghrelin inverse agonist potency, read-out: Activity EC50) [nM] | IC50 ([2]; read-out: Activity IC50) [nM] |
| --- | --- | --- | --- | --- |
| O=C(NCc1cccc(Cl)c1Cl)Nc1ccc(S(=O)(=O)Cc2ccc3c(c2)CNCC3)cc1 [H1044, 1-(2,3-dichlorobenzyl)-3-(4-(((1,2,3,4-tetrahydroisoquinolin-7-yl)methyl)sulfonyl)phenyl)urea] | 143 | 53.1 | – | – |
| CC(c1ccccc1)N(O)C(=O)Nc1ccc(S(=O)(=O)Cc2ccc3c(c2)CN(C)C3)cc1 (stereo not drawn) [H1527, 1-hydroxy-3-(4-(((2-methylisoindolin-5-yl)methyl)sulfonyl)phenyl)-1-(1-phenylethyl)urea] | – | – | 34 | 130 |
| C[C@H](NC(=O)Nc1ccc(S(=O)(=O)Nc2ccc(CN)cc2)cc1)c1cccc(Cl)c1Cl [H1050, (S)-N-(4-(aminomethyl)phenyl)-4-(3-(1-(2,3-dichlorophenyl)ethyl)ureido) benzenesulfonamide] | 109 | 57.4 | – | – |
| CC(C)NC(=O)Nc1ccc(S(=O)(=O)Cc2ccc3c(c2)CNC3)cc1 [H1178, 1-(4-((isoindolin-5-ylmethyl)sulfonyl)phenyl)-3-isopropylurea] | 1020 | 4890 | – | – |
| C[C@H](NC(=O)Nc1ccc(S(=O)(=O)Cc2ccc3c(c2)CCOC3)cc1)c1cccc(Cl)c1Cl [H1092, (S)-1-(1-(2,3-dichlorophenyl)ethyl)-3-(4-((isochroman-6-ylmethyl)sulfonyl)phenyl)urea] | 578 | – | – | – |
| COc1ccc(CS(=O)(=O)c2ccc(NC(=O)N[C@@H](C)c3cccc(Cl)c3Cl)cc2)cc1 [H1083, (S)-1-(1-(2,3-dichlorophenyl)ethyl)-3-(4-((4-methoxybenzyl)sulfonyl)phenyl)urea] | 1180 | – | – | – |
| COc1ccc([C@H](C)NC(=O)Nc2ccc(S(=O)(=O)Nc3ccc(C)cc3)cc2)c(Cl)c1Cl [H0953, (S)-4-(3-(1-(2,3-dichloro-4-methoxyphenyl)ethyl)ureido)-N-(p-tolyl)benzenesulfonamide] | – | > 30000 | – | – |
| CCOc1ccc(Cl)c(C(=O)NC(=O)Nc2ccc(S(=O)(=O)Cc3ccc4c(c3)CNC4)cc2)c1 [H1251, 2-chloro-5-ethoxy-N-((4-((isoindolin-5-ylmethyl)sulfonyl)phenyl)carbamoyl)benzamide] | – | 89.6 | – | – |
| COc1cccc(CS(=O)(=O)c2ccc(NC(=O)N[C@@H](C)c3cccc(Cl)c3Cl)cc2)c1 [H1082, (S)-1-(1-(2,3-dichlorophenyl)ethyl)-3-(4-((3-methoxybenzyl)sulfonyl)phenyl)urea] | – | > 30000 | – | – |
| CC(NC(=O)Nc1ccc(S(=O)(=O)C(C)(C)c2ccc3c(c2)CN(Cc2ccccc2)C3)cc1)c1ccccc1 (stereo not drawn) [H1231, 1-(4-((2-(2-benzylisoindolin-5-yl)propan-2-yl)sulfonyl)phenyl)-3-(1-phenylethyl)urea] | – | > 30000 | – | – |
| Cc1ccc(CS(=O)(=O)c2ccc(NC(=O)N[C@@H](C)c3ccc(-c4cnccn4)c(Cl)c3Cl)cc2)cc1 [H0963, (S)-1-(1-(2,3-dichloro-4-(pyrazin-2-yl)phenyl)ethyl)-3-(4-((4-methylbenzyl)sulfonyl)phenyl)urea] | – | > 30000 | – | – |
| C[C@H](NC(=O)Nc1ccc(S(=O)(=O)NC2CCN(C)CC2)cc1)c1ccccc1 [H1239, (S)-N-(1-methylpiperidin-4-yl)-4-(3-(1-phenylethyl)ureido) benzenesulfonamide] | – | > 30000 | – | – |
| COC(=O)Cc1ccc(NS(=O)(=O)c2ccc(NC(=O)N[C@@H](C)c3cccc(Cl)c3Cl)cc2)cc1 [H1075, methyl (S)-2-(4-((4-(3-(1-(2,3-dichlorophenyl)ethyl)ureido)phenyl)sulfonamido)phenyl)acetate] | – | 3020 | – | – |
| CCNC(=O)Nc1ccc(S(=O)(=O)Nc2ccc(CC(C)(C)N)cc2)cc1 [H0994, N-(4-(2-amino-2-methylpropyl)phenyl)-4-(3-ethylureido)benzenesulfonamide] | 1430 | – | – | – |
| C[C@H](NC(=O)Nc1ccc(S(=O)(=O)N2CCN(C)CC2)cc1)c1ccccc1 [H1225, (S)-1-(4-((4-methylpiperazin-1-yl)sulfonyl)phenyl)-3-(1-phenylethyl)urea] | – | 5900 | – | – |
